In patent US20140249084A1, “PTH-CONTAINING THERAPEUTIC/PROPHYLACTIC AGENT FOR OSTEOPOROSIS, CHARACTERIZED IN THAT PTH IS ADMINISTERED ONCE A WEEK IN A UNIT DOSE OF 100 TO 200 UNITS” (ASAHI KASEI PHARMA CORPORATION, priority 2009, published 2014):

Columns and labels:
[1] = test system: high-risk patients diagnosed with primary osteoporosis; assay: CT geometry of the femur (multislice CT), Working Example 2; format: in vivo, human; settings: 200 units once a week
Protocol: For the CT geometry, the proximal part of the femur was measured at the start and after 48 and 72 weeks using multislice CT scan.
The effects of the test drug on three parts of the femur (neck of the femur, trochanter, and shaft of the femur) were studied using ordinary CT scans.

[2] = test system: high-risk patients diagnosed with primary osteoporosis; assay: Worsening vertebral fractures, Working Example 2; format: in vivo, human; settings: FAS, 200 units once a week
Excerpt: The vertebral fractures in the present invention also include both new fractures and worsening fractures. […] New and worsening [fractures] can be classified by the grade increase pattern according to the criteria of Genant. Concretely speaking, a fracture is diagnosed as a new fracture when a change is found from grade 0 to grade 1, 2, or 3. It can be regarded as a worsening fracture when a change is found from grade 1 to grade 2 or 3 or from grade 2 to grade 3. The vertebral height was measured according to the method of Inoue et al. (Non-patent reference 35) and the method of Hayashi et al. (Non-patent Reference 36) to accurately assess the changes in grade.
The incidence of bone fractures was checked by frontal and lateral x-rays of the fourth thoracic to the fourth lumbar spine taken at the start and every 24 weeks thereafter.

[3] = test system: patients diagnosed with primary osteoporosis; assay: Lumbar spine bone mineral density by DXA, Working Example 1 (5 or 100 units once a week); format: in vivo, human; settings: low-risk patients, only one patient
Protocol: (§1) Both the 5 and 100 unit groups were administered two tablets of a calcium agent (containing 500 mg of precipitated calcium carbonate [200 mg as calcium] per tablet) once a day.
(§2) The osteoporosis patients were classified as condition shown in Table 1 based on the bone fracture risk factors present, as in Non-patent Reference 13, and compared. High-risk patients were defined as having all three factors involving age, prevalent vertebral fractures, and bone density or bone atrophy; low-risk patients were defined as other than the above.

[4] = in vivo
Protocol: The serum calcium was measured at the start, after 12 weeks, after 24 weeks, after 48 weeks, and after 72 weeks. Serum calcium standard value: 8.4 to 10.4 mg/dL. The standard concomitant drug (610 mg of calcium, 400 IU of vitamin D3, and 30 mg of magnesium) was taken once a day after dinner from the time of consent to the end of the trial.

[5] = in vivo; remark: listed apart in the source
Excerpt: The incidence of adverse events was studied after administering the test drug to the a group of osteoporosis patients having normal renal function, a group of osteoporosis patients having mild renal dysfunction, and a group of osteoporosis patients having moderate renal dysfunction.

[6] = test system: high-risk patients diagnosed with primary osteoporosis; assay: Lumbar spine bone density by DXA, Working Example 2; format: in vivo, human; settings: 200 units once a week; for Change in bone density (%): patients taking glucocorticoid
Protocol: For the bone density of the lumbar spine, the density of the second to fourth lumbar spine was measured at the start and every 24 weeks thereafter using dual-energy x-ray absorptiometry (DXA).

[7] = test system: patients diagnosed with primary osteoporosis; assay: Fractures at sites other than the vertebrae (roentgen films), Working Example 1; format: in vivo, human; settings: fractures of sites other than the vertebrae
Protocol: as §1, §2

[8] = in vivo; remark: listed apart in the source
[9] = in vivo; remark: listed apart in the source
Protocol: The Lumbar spine bone mineral density and occurrence of bone fractures were checked as bone assessments. For the Lumbar spine bone mineral density, the bone density of the second to fourth lumbar spine was measured at the start and every six months thereafter using dual-energy x-ray absorptiometry (DXA). For the frequency of bone fractures, x-rays were taken from the front and side of the fourth thoracic to the fifth lumbar spine at the start and every six months thereafter, and new vertebral fractures were assessed by comparison of the roentgen films at the start and at each point in time thereafter using the method of Genant et al. (Non-patent Reference 14) as a reference. In locations other than the vertebrae, fractures were evaluated by checking by roentgen films. Blood samples were also taken from all patients at the beginning and during administration, and the general laboratory test values, including the calcium concentration, were measured. The administration period in high-risk patients (DXA and new vertebral fractures were assessed collectively at the center; fractures of other than vertebrae were assessed by the investigator based on the roentgen films) was 85.1±20.8 weeks in the 5 unit group and 83.7±19.8 weeks in the 100 unit group. […] The administration period in low-risk patients was 72.7±19.4 weeks in the 5 unit group and 88.3±21.3 weeks in the 100 unit group.

teriparatide acetate
Volume bone mineral density (cortical bone) [vBMD cortical], change from baseline after 48 weeks (%) ([1]; Neck of femur): −0.77% | Volume bone mineral density (total) [vBMD total], change from baseline after 48 weeks (%) ([1]; Neck of femur): 0.92% | Volume bone mineral density (total) [vBMD total], change from baseline after 72 weeks (%) ([1]; Neck of femur): 0.15% | Volume bone mineral density (cortical bone) [vBMD cortical], change from baseline after 48 weeks (%) ([1]; Shaft of femur): 0.59% | Volume bone mineral density (cortical bone) [vBMD cortical], change from baseline after 72 weeks (%) ([1]; Shaft of femur): 0.18% | Maximum section modulus (SM (Z min)), change from baseline after 72 weeks (%) ([1]; Trochanter): 3.20% | Volume bone mineral density (cortical bone) [vBMD cortical], change from baseline after 48 weeks (%) ([1]; Trochanter): −0.49% | Volume bone mineral density (total) [vBMD total], change from baseline after 72 weeks (%) ([1]; Trochanter): 0.95% | Difference between test drug group and control group after 72 W (%) ([2]; incidence of worsening fractures): 1.8% | No. with fractures ([2]; worsening fractures): 1 | Lumbar spine bone mineral density (% change) ([3]; After 26 W): 3.2% | Lumbar spine bone mineral density (% change) ([3]; After 52 W): 6.1% | Lumbar spine bone mineral density (% change) ([3]; After 78 W): 12.0% | Lumbar spine bone mineral density (% change) ([3]; Final check): 12.0% | Corrected serum calcium, Max [4]: 10.0 mg/dL | Manifestation of hypercalcemia or hypercalciuria [4]: No manifestation of hypercalcemia or hypercalciuria was found | Patients with serum calcium exceeding 11.0 mg/mL [4]: not even one patient | Safety in terms of the serum calcium across renal function groups [4]: equivalent safety in terms of the serum calcium in all groups | Adverse events: No (%) [5]: 4.4% | Adverse events: No, No. of cases [5]: 2 | Adverse events: Point estimate of the difference [5]: 2.0 | Adverse events: Yes, No. of cases [5]: 65 | Percentage change in bone density (%) ([6]; 24 W, history of Alfacalcidol): 3.11% | Percentage change in bone density (%) ([6]; 24 W, history of Calcitriol): 3.50% | Percentage change in bone density (%) ([6]; 24 W, history of Calcium L-aspartate): 3.78% | Percentage change in bone density (%) ([6]; 24 W, history of Calcium lactate): 1.96% | Percentage change in bone density (%) ([6]; 24 W, history of Elcatonin): 3.95% | Percentage change in bone density (%) ([6]; 24 W, history of Menatetrenone): 2.70% | Percentage change in bone density (%) ([6]; 24 W, history of Raloxifene hydrochloride): 1.77% | Change in bone density (%) ([6]; 24 W): 3.50% | Percentage change in bone density (%) ([6]; 48 W, history of Alfacalcidol): 5.47% | Percentage change in bone density (%) ([6]; 48 W, history of Calcitriol): 4.40% | Percentage change in bone density (%) ([6]; 48 W, history of Calcium L-aspartate): 6.16% | Percentage change in bone density (%) ([6]; 48 W, history of Calcium lactate): 3.45% | Percentage change in bone density (%) ([6]; 48 W, history of Elcatonin): 3.59% | Percentage change in bone density (%) ([6]; 48 W, history of Menatetrenone): 3.04% | Percentage change in bone density (%) ([6]; 48 W, history of Raloxifene hydrochloride): 4.96% | Change in bone density (%) ([6]; 48 W): 5.97% | Percentage change in bone density (%) ([6]; 72 W, history of Alfacalcidol): 6.47% | Percentage change in bone density (%) ([6]; 72 W, history of Calcitriol): 6.38% | Percentage change in bone density (%) ([6]; 72 W, history of Calcium L-aspartate): 5.85% | Percentage change in bone density (%) ([6]; 72 W, history of Calcium lactate): 4.93% | Percentage change in bone density (%) ([6]; 72 W, history of Elcatonin): 5.36% | Percentage change in bone density (%) ([6]; 72 W, history of Menatetrenone): 4.32% | Percentage change in bone density (%) ([6]; 72 W, history of Raloxifene hydrochloride): 4.59% | Change in bone density (%) ([6]; 72 W): 6.82% | No. with fractures (persons) ([7]; high-risk patients, 5 units once a week): 6 persons | No. with fractures (persons) ([7]; high-risk patients, 100 units once a week): 1 persons | No. with fractures (persons) ([7]; low-risk patients, 5 units once a week): 1 persons | No. with fractures (persons) ([7]; low-risk patients, 100 units once a week): 0 persons | Side effects: No, No. of cases [8]: 27 | Side effects: Yes, No. of cases [8]: 22 | Hypercalcemia [9]: did not cause hypercalcemia at either dose | Tendency for the serum calcium to rise [9]: no tendency for the serum calcium to rise was seen
